In one test the test system is HTT mRNA. Description: Splicing RT-qPCR assay, HTT canonical (CJ) and alternative (AJ) junction mRNA. As to conditions: Homo sapiens, A673 or K562 cells, 24 hours compound treatment; for IC50: 24 h, read-out: HTT CJ (IC50, decrease in canonical junction mRNA); for AC50: read-out: HTT AJ (AC50, increase in alternative junction mRNA). Type of test: cell-based, human. In short, it runs like this: (§1)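 A673 or K562 cells were treated 24 h at 37 °C with an 11-point 3-fold compound dilution series (top 10 uM, DMSO ≤0.25%). Lysates went to one-step RT-qPCR measuring canonical (CJ) and alternative-exon (AJ) junction transcripts, normalized to GAPDH, GUSB or PPIA.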
For orientation: Real-time PCR tracks product formation cycle by cycle.

The test system of another test is MYB mRNA. Nature of the test: Splicing RT-qPCR assay, MYB canonical (CJ) and alternative (AJ) junction mRNA. Type of test: cell-based, human. Particulars: Homo sapiens, 24 h, A673 or K562 cells, 24 hours compound treatment, RT-qPCR; for AC50: read-out: MYB AJ (AC50, increase in alternative junction mRNA); for IC50: read-out: MYB CJ (IC50, decrease in canonical junction mRNA). In short, it runs like this: as §1

This is an account of results in patent US20250154169A1, “COMPOUNDS AND METHODS FOR MODULATING SPLICING” (REMIX THERAPEUTICS INC., priority 2021, published 2025).

For orientation: IC50 means the midpoint of a concentration-inhibition curve. The term AC50 denotes the concentration giving half of the maximal activity seen.

Where only a bound is given, the exact number is not on record here.

Take `CCn1cc2c(N3CCC(CC)(N(C)C)CC3)ccc(C(=O)Nc3cc(F)c4nc(C)cn4c3)c2n1` [Compound 508, 4-[4-(dimethylamino)-4-ethylpiperidin-1-yl]-2-ethyl-N-{8-fluoro-2-methylimidazo[1,2-a]pyridin-6-yl}indazole-7-carboxamide]: in the test with HTT mRNA, the half-maximal inhibitory concentration (IC50) is below 0.1 µM and the AC50 was in the range of 0.1 to 1 µM. In the test with MYB mRNA, the AC50 was below 0.1 µM and the IC50 is below 0.1 µM.
For the compound `Cc1nc2c(F)cc(NC(=O)c3ccc(N4CCNCC4)c4cn(C)nc34)cc2[nH]1` [Compound 509], in the test with HTT mRNA, the IC50 is above 10 µM and the AC50 was above 10 µM. Besides, in the test on MYB mRNA, the AC50 lay in the range of 1 to 10 µM and the IC50 lay within 1 to 10 µM.
Consider `COCCn1cc2c(N3CCNCC3)ccc(C(=O)Nc3cn4cc(C)nc4c(OC)n3)c2n1` [Compound 510, N-{8-methoxy-2-methylimidazo[1,2-a]pyrazin-6-yl}-2-(2-methoxyethyl)-4-(piperazin-1-yl) indazole-7-carboxamide], for which, in the test with HTT mRNA, the IC50 lay within 1 to 10 µM and the AC50 was in the range of 1 to 10 µM. Further, in the test with MYB mRNA, the AC50 is 0.1 to 1 µM and the IC50 was 0.1 to 1 µM.
Take `Cc1nc2c(C)cc(NC(=O)c3ccc(N4CCNCC4)c4cn(C)nc34)nc2o1` [Compound 511, N-{2,7-dimethyl-[1,3]oxazolo[5,4-b]pyridin-5-yl}-2-methyl-4-(piperazin-1-yl) indazole-7-carboxamide]: the IC50 in the test with HTT mRNA and with MYB mRNA was 0.1 to 1 µM in each case. The AC50 in the test on HTT mRNA and in the test on MYB mRNA was 0.1 to 1 µM each time.
Turning to `CCn1cc2c([C@@]34CCNCC3C4)ccc(C(=O)Nc3cc(F)c4nc(C)cn4c3)c2n1` (stereo partly shown) [Compound 513], the IC50 with HTT mRNA is 1 to 10 µM; in the test on MYB mRNA, 0.1 to 1 µM. For the same compound, the AC50 is above 10 µM with HTT mRNA and 0.1 to 1 µM with MYB mRNA.
With `Cn1cc2c(N3CCNCC3)ccc(C(=O)Nc3cc(F)c4nc(CF)oc4c3)c2n1` [Compound 514, N-[4-fluoro-2-(fluoromethyl)-1,3-benzoxazol-6-yl]-2-methyl-4-(piperazin-1-yl) indazole-7-carboxamide], in the test on HTT mRNA, the IC50 fell in the range of 0.1 to 1 µM and the AC50 was in the range of 0.1 to 1 µM. Also, in the test with MYB mRNA, the AC50 was below 0.1 µM and the IC50 was below 0.1 µM.
In the case of `CCn1cc2c(N3CCC(CC)(NC)CC3)ccc(C(=O)Nc3cc(F)c4nc(C)cn4c3)c2n1` [Compound 515, 2-ethyl-4-[4-ethyl-4-(methylamino)piperidin-1-yl]-N-{8-fluoro-2-methylimidazo[1,2-a]pyridin-6-yl}indazole-7-carboxamide], in the test on HTT mRNA, the IC50 lay in the range of 0.1 to 1 µM and the AC50 was in the range of 0.1 to 1 µM. Further, in the test on MYB mRNA, the AC50 is below 0.1 µM and the IC50 was below 0.1 µM.
Turning to `CCN(CC)C1(C)CCN(c2ccc(C(=O)Nc3cc(F)c4nc(C)cn4c3)c3nn(CC)cc23)CC1` [Compound 517, 4-[4-(diethylamino)-4-methylpiperidin-1-yl]-2-ethyl-N-{8-fluoro-2-methylimidazo[1,2-a]pyridin-6-yl}indazole-7-carboxamide trifluoroacetic acid], the IC50 was in the range of 1 to 10 µM in the test with HTT mRNA and 0.1 to 1 µM in the test on MYB mRNA. Also, the values for the AC50 with HTT mRNA and in the test with MYB mRNA were above 10 µM and 0.1 to 1 µM, respectively.
As to `Cc1cn2cc(NC(=O)c3ccc(N4CCNCC4)c4cn(C)nc34)ccc2n1` [Compound 518, 2-methyl-N-{2-methylimidazo[1,2-a]pyridin-6-yl}-4-(piperazin-1-yl) indazole-7-carboxamide], in the test on HTT mRNA, the IC50 was 1 to 10 µM and the AC50 was 1 to 10 µM. Moreover, in the test with MYB mRNA, the AC50 is below 0.1 µM and the IC50 fell in the range of 0.1 to 1 µM.
`CCN[C@@H]1CCN(c2ccc(C(=O)Nc3cc(F)c4nc(C)cn4c3)c3nn(C)cc23)C1` [Compound 520, 4-[(3R)-3-(ethylamino)pyrrolidin-1-yl]-N-{8-fluoro-2-methylimidazo[1,2-a]pyridin-6-yl}-2-methylindazole-7-carboxamide]: in the test with HTT mRNA, the IC50 lay within 1 to 10 µM and the half-maximal activity concentration (AC50) fell in the range of 1 to 10 µM. In addition, in the test on MYB mRNA, the AC50 was below 0.1 µM and the IC50 is below 0.1 µM.
`Cc1cn2cc(NC(=O)c3ccc(N4CC[C@@H](NCC5CC5)C4)c4cn(C)nc34)cc(F)c2n1` [Compound 522, 4-[(3R)-3-[(cyclopropylmethyl)amino]pyrrolidin-1-yl]-N-{8-fluoro-2-methylimidazo[1,2-a]pyridin-6-yl}-2-methylindazole-7-carboxamide]: in the test on HTT mRNA, the IC50 was 1 to 10 µM and the AC50 was 1 to 10 µM. In the test with MYB mRNA, the AC50 is 0.1 to 1 µM and the IC50 was below 0.1 µM.
As for `Cc1cn2cc(NC(=O)c3ccc(N4CC[C@@H](NC(C)C)C4)c4cn(C)nc34)cc(F)c2n1` [Compound 524, N-{8-fluoro-2-methylimidazo[1,2-a]pyridin-6-yl}-4-[(3R)-3-(isopropylamino)pyrrolidin-1-yl]-2-methylindazole-7-carboxamide], in the test with HTT mRNA, the IC50 was above 10 µM and the AC50 was above 10 µM. For the same compound, in the test on MYB mRNA, the AC50 was below 0.1 µM and the IC50 was below 0.1 µM.
As for `CCn1cc2c(N3CCC(C)(NC4CC4)CC3)ccc(C(=O)Nc3cc(F)c4nc(C)cn4c3)c2n1` [Compound 525, 4-[4-(cyclopropylamino)-4-methylpiperidin-1-yl]-2-ethyl-N-{8-fluoro-2-methylimidazo[1,2-a]pyridin-6-yl}indazole-7-carboxamide], in the test with HTT mRNA, the IC50 was 0.1 to 1 µM and the AC50 was 0.1 to 1 µM. In the test on MYB mRNA, the AC50 is below 0.1 µM and the IC50 is below 0.1 µM.
Take `CCn1cc2c(C3CCNC3)ccc(C(=O)Nc3cc(F)c4nccn4c3)c2n1` (stereo not shown) [Compound 526, 2-ethyl-N-{8-fluoroimidazo[1,2-a]pyridin-6-yl}-4-(pyrrolidin-3-yl) indazole-7-carboxamide]: in the test with HTT mRNA, the half-maximal inhibitory concentration (IC50) was above 10 µM and the AC50 was above 10 µM. In the test with MYB mRNA, the half-maximal activity concentration (AC50) was in the range of 1 to 10 µM and the IC50 is 1 to 10 µM.
In the case of `CCN(c1ccc(C(=O)Nc2cc(F)c3nc(C)cn3c2)c2nn(C)cc12)C1CCNCC1` [Compound 527, 4-[ethyl(piperidin-4-yl)amino]-N-{8-fluoro-2-methylimidazo[1,2-a]pyridin-6-yl}-2-methylindazole-7-carboxamide], in the test on HTT mRNA, the IC50 is above 10 µM and the AC50 is above 10 µM. In addition, in the test with MYB mRNA, the AC50 is 0.1 to 1 µM and the IC50 lay within 0.1 to 1 µM.
Take `Cc1cn2cc(NC(=O)c3cc(Cl)c(N4CCNCC4)c4cn(C)nc34)cc(F)c2n1` [Compound 528, 5-chloro-N-{8-fluoro-2-methylimidazo[1,2-a]pyridin-6-yl}-2-methyl-4-(piperazin-1-yl) indazole-7-carboxamide]: in the test with HTT mRNA, the IC50 was above 10 µM and the AC50 is above 10 µM. For the same compound, in the test with MYB mRNA, the AC50 was 0.1 to 1 µM and the IC50 was 0.1 to 1 µM.
As for `COc1nc(NC(=O)c2ccc(N3CCNCC3)c3cn(C)nc23)cc2oc(C)nc12` [Compound 529, N-{4-methoxy-2-methyl-[1,3]oxazolo[4,5-c]pyridin-6-yl}-2-methyl-4-(piperazin-1-yl) indazole-7-carboxamide], in the test with HTT mRNA, the IC50 was below 0.1 µM and the AC50 was 0.1 to 1 µM. In the test with MYB mRNA, the AC50 is below 0.1 µM and the IC50 is below 0.1 µM.
In the case of `Cc1cn2cc(NC(=O)c3ccc(N4CC[C@@H](NC5COC5)C4)c4cn(C)nc34)cc(F)c2n1` [Compound 531, N-{8-fluoro-2-methylimidazo[1,2-a]pyridin-6-yl}-2-methyl-4-[(3R)-3-(oxetan-3-ylamino)pyrrolidin-1-yl]indazole-7-carboxamide], in the test on HTT mRNA, the IC50 is 1 to 10 µM and the AC50 is 1 to 10 µM. Besides, in the test on MYB mRNA, the AC50 was 1 to 10 µM and the IC50 was in the range of 0.1 to 1 µM.
For `Cc1cn2cc(NC(=O)c3ccc(N4CC[C@@H](NC5CCC5)C4)c4cn(C)nc34)cc(F)c2n1` [Compound 533, (R)-4-(3-(cyclobutylamino)pyrrolidin-1-yl)-N-(8-fluoro-2-methylimidazo[1,2-a]pyridin-6-yl)-2-methyl-2H-indazole-7-carboxamide], in the test with HTT mRNA, the IC50 fell in the range of 1 to 10 µM and the AC50 was 1 to 10 µM. Also, in the test with MYB mRNA, the AC50 was below 0.1 µM and the IC50 was below 0.1 µM.
Take `CCn1cc2c(N3CCN[C@@H](C(C)C)C3)ccc(C(=O)Nc3cc(F)c4nc(C)cn4c3)c2n1` [Compound 535, 2-ethyl-N-{8-fluoro-2-methylimidazo[1,2-a]pyridin-6-yl}-4-[(3 S)-3-isopropylpiperazin-1-yl]indazole-7-carboxamide]: the IC50 is above 10 µM in the test with HTT mRNA and 0.1 to 1 µM in the test with MYB mRNA. The AC50 is above 10 µM in the test with HTT mRNA and 0.1 to 1 µM in the test on MYB mRNA.
Turning to `CCn1cc2c(N3CCN4CCOC[C@H]4C3)ccc(C(=O)Nc3cc(F)c4nc(C)cn4c3)c2n1` [Compound 537, 4-[(9aR)-hexahydro-1H-pyrazino[2,1-c][1,4]oxazin-8-yl]-2-ethyl-N-{8-fluoro-2-methylimidazo[1,2-a]pyridin-6-yl}indazole-7-carboxamide], in the test with HTT mRNA, the IC50 was above 10 µM and the AC50 is above 10 µM. Further, in the test on MYB mRNA, the AC50 lay in the range of 1 to 10 µM and the IC50 lay within 1 to 10 µM.
On to `CCn1cc2c(N3CCN4CCOC[C@@H]4C3)ccc(C(=O)Nc3cc(F)c4nc(C)cn4c3)c2n1` [Compound 538, 4-[(9aS)-hexahydro-1H-pyrazino[2,1-c][1,4]oxazin-8-yl]-2-ethyl-N-{8-fluoro-2-methylimidazo[1,2-a]pyridin-6-yl} indazole-7-carboxamide], for which, in the test on HTT mRNA, the IC50 was in the range of 1 to 10 µM and the AC50 is 1 to 10 µM. For the same compound, in the test on MYB mRNA, the AC50 fell in the range of 1 to 10 µM and the IC50 was in the range of 1 to 10 µM.
